Assays:
[1] = test system: radiation-induced oral mucositis, left buccal cheek pouch; settings: Acute Radiation; published results in nearly identical models; cited from earlier work
[2] = test system: fractionated radiation and cisplatin induced oral mucositis, left buccal cheek pouch; settings: published results in nearly identical models; cited from earlier work
[3] = test system: FaDu human head and neck cancer xenograft; experiment: Tumor growth and response to therapy in FaDu xenograft; format: in vivo, nude mice (nu/nu)
Experimental: Ninety (90) male nude mice (nu/nu) were divided into nine (9) groups of ten […]) mice per group. To ensure that a sufficient number of tumor-bearing animals were available for this study, a total of 100 mice were inoculated s.c. in the flank with 1×10^6 FaDu cells. FaDu (HTB-43) human head and neck cancer cells were obtained from ATCC. These cells were grown in EMEM medium supplemented with 10% Fetal Calf Serum (FCS), 1% penicillin and streptomycin, and 2 mM L-Glutamine. […] The flask was incubated at 37° C. until cells detached. Cells were then sub-cultured at a ratio of 1:3. […] Tumors were measured once every two days with micro-calipers, and tumor volume was calculated as (length×width×width)/2. Where animals were euthanized for tumor volume exceeding the maximum permissible by IACUC rules (1500 mm^3) or tumor ulceration, the last measurement was carried forward in calculations of mean tumor volume.
All animals were weighed every day and their survival recorded, to assess possible differences in animal weight among treatment groups as an indication of possible toxicity resulting from the treatments. […] Any animals whose tumor grew to over 1500 mm^3 were also euthanized.
Further analysis of the tumor volume data was performed by calculating the mean area under the curve (AUC) for the tumor volume for each animal and comparing the groups using an ANOVA on ranks test. Due to the impact of animals euthanized for tumor ulceration or volume in excess of 1500 mm^3, this analysis was performed on data to Day 15 as well as on the full data set to Day 29.

[4] = groups receiving cisplatin chemotherapy 5 mg/kg (with vehicle or Compound X)

SMILES | % reduction of animal days with OM scores ≥ 3 [1] | % reduction of animal days with OM scores ≥ 3 [2] [%] | mean weight gain ([3]; cisplatin 5 mg/kg plus vehicle, by Day 15) [%] | average gain of starting weight ([3]; cisplatin 5 mg/kg plus vehicle, by the end of the study) [%] | p, tumor volume AUC to Day 15 vs vehicle control group (ANOVA on ranks) ([3]; cisplatin plus vehicle) | mean tumor volume ([3]; cisplatin plus vehicle, Day 1) [mm^3] | mean tumor volume ([3]; cisplatin plus vehicle, Day 15) [mm^3] | mean tumor volume ([3]; cisplatin plus vehicle, end of the study) [mm^3] | animals euthanized for tumor size [3, 4] [%] | animals euthanized for tumor ulceration [3, 4] [%] | animals survived [3, 4] [%]
N[C@H](CCC(=O)N[C@@H](Cc1c[nH]c2ccccc12)C(=O)O)C(=O)O [SCV-07] | 68.3%-77.6% | 33.3 |  |  |  |  |  |  |  |  | 
N.N.[Cl][Pt][Cl] [cisplatin, reference compound] |  |  | 7.2 | 13.0 | 0.011 | 100 | 652 | 302 | 23 | 26.7 | 50
